Source: ChEMBL document CHEMBL1221241, “Discovery of tetrahydroisoquinoline (THIQ) derivatives as potent and orally bioavailable LFA-1/ICAM-1 antagonists” (Bioorg Med Chem Lett, 2010)

Tests used:
[1] = biological target: Intercellular adhesion molecule (ICAM-1), Integrin alpha-L/beta-2 (Homo sapiens, UniProt P05107+P05362+P20701); experiment: Inhibition of LFA1/ICAM1 interaction in human Hut-78 cells by cell migration assay; type: cell-based
[2] = AUC in Sprague-Dawley rat at 5 mg/kg, iv; type: ADME, organism-based; parameters: dose 5 mg/kg, route intravenous; conditions: plasma
[3] = Half life in Sprague-Dawley rat at 5 mg/kg, iv; type: ADME, organism-based; parameters: dose 5 mg/kg, route intravenous; conditions: in vivo
[4] = Clearance in Sprague-Dawley rat at 5 mg/kg, iv; type: ADME, organism-based; parameters: dose 5 mg/kg, route intravenous; conditions: in vivo
[5] = Tmax in C57BL/6 mouse at 20 mg/kg, po; type: ADME, organism-based; parameters: dose 20 mg/kg, route oral; conditions: in vivo
[6] = Oral bioavailability in Sprague-Dawley rat at 100 mg/kg; type: ADME, organism-based; conditions: in vivo
[7] = Cmax in C57BL/6 mouse at 20 mg/kg, po; type: ADME, organism-based; parameters: dose 20 mg/kg, route oral; conditions: in vivo
[8] = Oral bioavailability in C57BL/6 mouse at 20 mg/kg; type: ADME, organism-based; conditions: in vivo
[9] = Oral bioavailability in Sprague-Dawley rat at 20 mg/kg; type: ADME, organism-based; conditions: in vivo
[10] = Tmax in Sprague-Dawley rat at 20 mg/kg, po; type: ADME, organism-based; parameters: dose 20 mg/kg, route oral; conditions: in vivo
[11] = Tmax in C57BL/6 mouse at 100 mg/kg, po; type: ADME, organism-based; parameters: dose 100 mg/kg, route oral; conditions: in vivo
[12] = Cmax in Sprague-Dawley rat at 20 mg/kg, po; type: ADME, organism-based; parameters: dose 20 mg/kg, route oral; conditions: in vivo
[13] = AUClast in C57BL/6 mouse at 20 mg/kg, po; type: ADME, organism-based; parameters: time 0 - last, dose 20 mg/kg, route oral; conditions: plasma
[14] = AUClast in Sprague-Dawley rat at 20 mg/kg, po; type: ADME, organism-based; parameters: time 0 - last, dose 20 mg/kg, route oral; conditions: plasma
[15] = Apparent permeability of the compound from apical to basolateral side in MDCK cells; type: ADME, cell-based, Canis lupus familiaris; conditions: dog
[16] = system: Mus musculus; experiment: Reduction of neutrophil migration in po dosed thioglycollate-induced C57BL/6 mouse peritonitis model administered 15 mins before thioglycollate challenge measured after 4 hrs; type: functional
[17] = Cmax in C57BL/6 mouse at 100 mg/kg, po; type: ADME, organism-based; parameters: dose 100 mg/kg, route oral; conditions: in vivo
[18] = Apparent permeability of the compound from basolateral to apical side in MDCK cells; type: ADME, cell-based, Canis lupus familiaris; conditions: dog
[19] = AUClast in C57BL/6 mouse at 100 mg/kg, po; type: ADME, organism-based; parameters: time 0 - last, dose 100 mg/kg, route oral; conditions: plasma
[20] = system: Mus musculus; experiment: Reduction of neutrophil migration in iv dosed thioglycollate-induced C57BL/6 mouse peritonitis model administered 15 mins before thioglycollate challenge measured after 4 hrs; type: functional

Intercellular adhesion molecule (ICAM-1), Integrin alpha-L/beta-2, sequence (P20701 whole entry): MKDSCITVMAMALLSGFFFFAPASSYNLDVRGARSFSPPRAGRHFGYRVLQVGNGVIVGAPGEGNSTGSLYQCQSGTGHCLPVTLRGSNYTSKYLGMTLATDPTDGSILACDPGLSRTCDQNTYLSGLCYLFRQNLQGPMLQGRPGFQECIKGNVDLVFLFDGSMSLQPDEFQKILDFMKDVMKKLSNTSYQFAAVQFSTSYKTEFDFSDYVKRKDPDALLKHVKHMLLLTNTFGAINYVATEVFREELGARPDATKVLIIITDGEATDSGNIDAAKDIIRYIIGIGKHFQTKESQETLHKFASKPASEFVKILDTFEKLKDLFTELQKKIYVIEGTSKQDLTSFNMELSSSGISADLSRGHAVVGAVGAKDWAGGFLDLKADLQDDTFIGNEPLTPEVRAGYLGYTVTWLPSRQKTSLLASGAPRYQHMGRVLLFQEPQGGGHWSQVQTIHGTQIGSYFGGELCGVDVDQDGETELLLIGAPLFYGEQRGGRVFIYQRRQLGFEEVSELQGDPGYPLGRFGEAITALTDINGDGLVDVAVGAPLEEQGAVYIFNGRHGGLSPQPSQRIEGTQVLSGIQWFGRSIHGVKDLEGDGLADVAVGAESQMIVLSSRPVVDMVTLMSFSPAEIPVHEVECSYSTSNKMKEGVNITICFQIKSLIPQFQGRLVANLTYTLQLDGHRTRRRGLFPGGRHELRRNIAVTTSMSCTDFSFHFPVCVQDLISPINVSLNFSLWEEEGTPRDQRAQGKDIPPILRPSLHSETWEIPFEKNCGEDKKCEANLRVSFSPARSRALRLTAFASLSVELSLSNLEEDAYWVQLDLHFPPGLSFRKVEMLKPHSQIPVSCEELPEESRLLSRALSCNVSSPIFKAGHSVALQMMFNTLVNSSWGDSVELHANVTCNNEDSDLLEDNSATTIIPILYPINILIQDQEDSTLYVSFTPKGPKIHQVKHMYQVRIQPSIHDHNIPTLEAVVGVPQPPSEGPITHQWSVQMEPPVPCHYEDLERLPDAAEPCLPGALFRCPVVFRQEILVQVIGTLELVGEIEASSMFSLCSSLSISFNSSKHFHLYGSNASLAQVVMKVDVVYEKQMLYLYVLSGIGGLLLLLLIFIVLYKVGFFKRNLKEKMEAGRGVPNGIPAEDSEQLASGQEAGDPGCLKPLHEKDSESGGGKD
Intercellular adhesion molecule (ICAM-1), Integrin alpha-L/beta-2, sequence (P05362 whole entry): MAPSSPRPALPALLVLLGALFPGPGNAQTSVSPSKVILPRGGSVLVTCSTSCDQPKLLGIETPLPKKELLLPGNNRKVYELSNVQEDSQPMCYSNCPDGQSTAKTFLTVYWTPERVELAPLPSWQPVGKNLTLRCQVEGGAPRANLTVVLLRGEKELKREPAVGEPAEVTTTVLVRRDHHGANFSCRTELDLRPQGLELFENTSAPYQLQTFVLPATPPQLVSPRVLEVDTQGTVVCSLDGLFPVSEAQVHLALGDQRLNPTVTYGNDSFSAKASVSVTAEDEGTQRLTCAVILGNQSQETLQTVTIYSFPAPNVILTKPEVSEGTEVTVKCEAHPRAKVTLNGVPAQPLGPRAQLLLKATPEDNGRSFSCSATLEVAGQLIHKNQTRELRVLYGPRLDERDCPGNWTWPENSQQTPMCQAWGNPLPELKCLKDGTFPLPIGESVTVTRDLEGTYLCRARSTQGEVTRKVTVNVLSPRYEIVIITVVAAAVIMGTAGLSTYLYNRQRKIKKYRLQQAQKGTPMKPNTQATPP
Intercellular adhesion molecule (ICAM-1), Integrin alpha-L/beta-2, sequence (P05107 whole entry): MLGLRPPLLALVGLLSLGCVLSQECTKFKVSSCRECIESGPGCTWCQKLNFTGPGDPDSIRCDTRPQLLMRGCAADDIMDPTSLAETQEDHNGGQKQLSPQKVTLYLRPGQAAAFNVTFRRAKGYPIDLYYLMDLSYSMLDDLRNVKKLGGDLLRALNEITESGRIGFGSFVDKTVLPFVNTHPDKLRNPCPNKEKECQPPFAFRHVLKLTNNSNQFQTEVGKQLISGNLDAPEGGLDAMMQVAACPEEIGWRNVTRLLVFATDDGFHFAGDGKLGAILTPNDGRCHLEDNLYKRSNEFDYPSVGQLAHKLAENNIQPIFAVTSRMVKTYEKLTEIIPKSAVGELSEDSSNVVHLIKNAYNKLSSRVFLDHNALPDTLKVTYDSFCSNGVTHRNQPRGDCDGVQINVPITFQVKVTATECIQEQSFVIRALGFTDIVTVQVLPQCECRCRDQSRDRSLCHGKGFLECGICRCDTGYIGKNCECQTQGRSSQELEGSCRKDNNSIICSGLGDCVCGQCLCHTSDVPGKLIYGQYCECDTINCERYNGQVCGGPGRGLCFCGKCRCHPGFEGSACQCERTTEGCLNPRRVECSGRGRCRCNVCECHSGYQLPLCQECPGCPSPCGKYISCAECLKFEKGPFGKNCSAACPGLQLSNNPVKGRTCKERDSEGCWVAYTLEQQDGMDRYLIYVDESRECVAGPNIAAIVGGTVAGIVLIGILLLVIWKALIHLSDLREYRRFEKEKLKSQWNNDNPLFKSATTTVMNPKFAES

| Compound | IC50 [1] | AUC [2] | half-life [3] | clearance [4] | further results |
| --- | --- | --- | --- | --- | --- |
| NC[C@H](NC(=O)c1c(Cl)cc2c(c1Cl)CCN(C(=O)c1ccc(Cl)cc1)C2)C(=O)O | > 1000 nM |  |  |  |  |
| Cc1ccc(C(=O)N2CCc3c(cc(Cl)c(C(=O)N[C@@H](CNC(=O)c4cccs4)C(=O)O)c3Cl)C2)cc1 | 10 nM |  |  |  |  |
| O=C(NC[C@H](NC(=O)c1c(Cl)cc2c(c1Cl)CCN(C(=O)/C=C/c1ccco1)C2)C(=O)O)c1cccs1 | 25 nM |  |  |  |  |
| O=C(NC[C@H](NC(=O)c1c(Cl)cc2c(c1Cl)CCN(C(=O)c1ccccc1)C2)C(=O)O)c1cccs1 | 79 nM |  |  |  |  |
| CC(=O)NC[C@H](NC(=O)c1c(Cl)cc2c(c1Cl)CCN(C(=O)c1ccc(Cl)cc1)C2)C(=O)O | 620 nM |  |  |  |  |
| O=C(NC[C@H](NC(=O)c1c(Cl)cc2c(c1Cl)CCN(C(=O)c1cccc(Cl)c1)C2)C(=O)O)c1cccs1 | 66 nM | 120 ng·h/mL | 1.1 h | > 60 mL/min/kg |  |
| O=C(NC[C@H](NC(=O)c1c(Cl)cc2c(c1Cl)CCN(C(=O)c1ccc(Cl)cc1)C2)C(=O)O)c1ccco1 | 51 nM |  |  |  |  |
| O=C(N[C@@H](Cc1c[nH]c2ccccc12)C(=O)O)c1c(Cl)cc2c(c1Cl)CCN(C(=O)c1ccc(Cl)cc1)C2 | 810 nM |  |  |  |  |
| O=C(NC[C@H](NC(=O)c1c(Cl)cc2c(c1Cl)CCN(C(=O)c1cc3ccccc3o1)C2)C(=O)O)c1cccs1 | 5 nM | 1260 ng·h/mL | 1.5 h | > 60 mL/min/kg |  |
| O=C(NC[C@H](NC(=O)c1c(Cl)cc2c(c1Cl)CCN(C(=O)C1CCCCC1)C2)C(=O)O)c1cccs1 | > 1000 nM |  |  |  |  |
| CC(=O)N1CCc2c(cc(Cl)c(C(=O)N[C@@H](CNC(=O)c3cccs3)C(=O)O)c2Cl)C1 | > 1000 nM |  |  |  |  |
| O=C(N[C@@H](CNC(=O)C1CCCCC1)C(=O)O)c1c(Cl)cc2c(c1Cl)CCN(C(=O)c1ccc(Cl)cc1)C2 | 540 nM |  |  |  |  |
| O=C(NC[C@H](NC(=O)c1c(Cl)cc2c(c1Cl)CCN(C(=O)c1ccc(Cl)cc1)C2)C(=O)O)c1cccs1 | 22 nM | 580 ng·h/mL | 1.4 h | 31 mL/min/kg |  |
| Cc1cccc(C(=O)N2CCc3c(cc(Cl)c(C(=O)N[C@@H](CNC(=O)c4cccs4)C(=O)O)c3Cl)C2)c1 | 90 nM |  |  |  |  |
| Cc1ccccc1C(=O)N1CCc2c(cc(Cl)c(C(=O)N[C@@H](CNC(=O)c3cccs3)C(=O)O)c2Cl)C1 | 460 nM |  |  |  |  |
| CCOC(=O)[C@H](CNC(=O)c1cccs1)NC(=O)c1c(Cl)cc2c(c1Cl)CCN(C(=O)c1ccc3ccoc3c1)C2 |  | 16800 ng·h/mL | 2.8 h | 5 mL/min/kg | Tmax [5]: 0.8 h; bioavailability [6]: 31%; Cmax [7]: 2120 ng/mL; bioavailability [8]: 27%; bioavailability [9]: 18%; Tmax [10]: 0.8 h; Tmax [11]: 1 h; Cmax [12]: 3400 ng/mL; AUC(0-t) [13]: 5540 ng·h/mL; AUC(0-t) [14]: 13900 ng·h/mL; Papp A→B [15]: 8.5 ×10⁻⁶ cm/s; Activity [16]: Dose-dependent effect; ED50 ([16]; C57BL/6, po): 6.4 mg/kg; Cmax [17]: 8460 ng/mL; Papp B→A [18]: 10 ×10⁻⁶ cm/s; AUC(0-t) [19]: 31900 ng·h/mL |
| O=C(NC[C@H](NC(=O)c1c(Cl)cc2c(c1Cl)CCN(C(=O)c1ccc3ccoc3c1)C2)C(=O)O)c1cccs1 | 9 nM | 5500 ng·h/mL | 3 h | 3.2 mL/min/kg | Papp A→B [15]: 0.34 ×10⁻⁶ cm/s; Activity [20]: Dose-dependent effect; ED50 ([20]; C57BL/6, iv): 0.038 mg/kg; Papp B→A [18]: 0.3 ×10⁻⁶ cm/s |
| O=C(NC[C@H](NC(=O)c1c(Cl)cc2c(c1Cl)CCN(C(=O)c1ccc3c(c1)OCC3)C2)C(=O)O)c1cccs1 | 13 nM | 4870 ng·h/mL | 1.1 h | 19 mL/min/kg |  |
| O=C(NC[C@H](NC(=O)c1c(Cl)cc2c(c1Cl)CCN(C(=O)c1ccc(Cl)cc1)C2)C(=O)O)c1ccccc1 | 29 nM | 487 ng·h/mL | 0.7 h | > 60 mL/min/kg |  |
| O=C(N[C@@H](Cc1cccc(O)c1)C(=O)O)c1c(Cl)cc2c(c1Cl)CCN(C(=O)c1ccc(Cl)cc1)C2 | > 1000 nM |  |  |  |  |
